Assay results from ChEMBL document CHEMBL1201862, “PubChem BioAssay data set” (2004).
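Dose response: 5 concentrations. Exposure: 48 h. Format: 96-well plates. Endpoint: linear interpolation; highest concentration if not reached. Here, GI50 denotes the concentration required for 50% inhibition of growth.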 Calls of active or inactive are those of the source. Rule as the data show it: active = GI50 up to about 1.1 µM and inactive = higher.

Legend:
Assay in all cases: inhibition of tumour cell growth, NCI panel, 48 h
A498 = test system: A498
A549 = test system: A549
BT-549 = test system: BT-549
CAKI-1 = test system: CAKI-1
COLO 205 = test system: COLO 205
EKVX = test system: EKVX
HCT-116 = test system: HCT-116
HCT-15 = test system: HCT-15
HOP-62 = test system: HOP-62
IGROV-1 = test system: IGROV-1
LOX IMVI = test system: LOX IMVI
M19-MEL = test system: M19-MEL
NCI-H23 = test system: NCI-H23
NCI-H522 = test system: NCI-H522
OVCAR-8 = test system: OVCAR-8
SN12C = test system: SN12C
SNB-19 = test system: SNB-19
SR = test system: SR
SW-620 = test system: SW-620

| Compound | GI50 (A498) | GI50 (A549) | GI50 (BT-549) | GI50 (CAKI-1) | GI50 (COLO 205) | GI50 (EKVX) | GI50 (HCT-116) | GI50 (HCT-15) | GI50 (HOP-62) | GI50 (IGROV-1) | GI50 (LOX IMVI) | GI50 (M19-MEL) | GI50 (NCI-H23) | GI50 (NCI-H522) | GI50 (OVCAR-8) | GI50 (SN12C) | GI50 (SNB-19) | GI50 (SR) | GI50 (SW-620) |
| --- | --- | --- | --- | --- | --- | --- | --- | --- | --- | --- | --- | --- | --- | --- | --- | --- | --- | --- | --- |
| N#CCC(=O)N/N=C(\CCN1CCCC1)CC(c1ccccc1)c1c(O)c2ccccc2oc1=O (centres undefined) | > 41.1 µM (inactive) | > 71.9 µM (inactive) | 47.5 µM (inactive) | > 95.3 µM (inactive) | 25.5 µM (inactive) | > 100 µM (inactive) | > 84.1 µM (inactive) | > 67.5 µM | > 100 µM (inactive) | > 100 µM (inactive) | > 41.3 µM (inactive) | 78.7 µM (inactive) | 97.1 µM (inactive) | 70.6 µM (inactive) | > 95.5 µM (inactive) | > 100 µM (inactive) | > 100 µM (inactive) | 29.4 µM (inactive) | > 58.2 µM (inactive) |
| CC[C@@]1(O)C(=O)OCc2c1cc1n(c2=O)Cc2cc3cc(OC)ccc3nc2-1 | 0.415 µM (active) | 0.0249 µM (active) | 0.0308 µM (active) | 0.00476 µM (active) | 0.116 µM (active) | 0.546 µM (active) | 0.0197 µM (active) | 0.116 µM | 0.00562 µM (active) | 0.106 µM (active) | 0.0221 µM (active) | 0.0537 µM (active) | 0.00902 µM (active) | 0.0246 µM (active) | 0.0448 µM (active) | 0.0245 µM (active) | 0.00843 µM (active) | 0.00667 µM (active) | 0.0248 µM (active) |
| CSC1NC=Nc2c1sc(=S)n2-c1ccccc1 (centres undefined) | > 100 µM (inactive) | > 100 µM (inactive) | – | > 100 µM (inactive) | > 100 µM (inactive) | > 100 µM (inactive) | > 100 µM (inactive) | > 100 µM | 24.2 µM (inactive) | > 100 µM (inactive) | > 100 µM (inactive) | > 100 µM (inactive) | > 100 µM (inactive) | > 100 µM (inactive) | > 100 µM (inactive) | > 100 µM (inactive) | > 100 µM (inactive) | > 100 µM (inactive) | > 100 µM (inactive) |
| CCOC(=O)[C@H](Cc1ccccc1)NC(=O)c1nc[nH]c1[N+](=O)[O-] | > 100 µM (inactive) | > 100 µM (inactive) | – | > 100 µM (inactive) | > 100 µM (inactive) | > 100 µM (inactive) | > 100 µM (inactive) | > 100 µM | > 100 µM (inactive) | > 100 µM (inactive) | > 100 µM (inactive) | > 100 µM (inactive) | > 100 µM (inactive) | > 100 µM (inactive) | > 100 µM (inactive) | > 100 µM (inactive) | > 100 µM (inactive) | > 100 µM (inactive) | > 100 µM (inactive) |
